Series [1] has as its system Myzus persicae (Green Peach Aphid). The series can be described thus: Activity against Myzus persicae (green peach aphid): systemic activity. The series is classed as in vivo. Particulars: for mortality at 24 ppm: Myzus persicae, 144 h, test rate 24 ppm, systemic, pea seedling roots in test solution, 6 days. As to the method: Roots of pea seedlings infested with an aphid population of mixed ages were placed directly into aqueous test solutions prepared from 10′000 DMSO stock solutions. The samples were assessed for mortality 6 days after placing seedlings into test solutions.

The test system of series [2] is Spodoptera littoralis (Egyptian Cotton Leaf Worm). The series can be described thus: Activity against Spodoptera littoralis (Egyptian cotton leaf worm), uptake via lettuce roots from agar. To be noted: 144 h, test rate 12.5 ppm, 6 days after infestation, read-out: effect in at least one of the three categories (mortality, anti-feeding, or growth inhibition). In kind it is in vivo. An excerpt:
Test compounds were applied by pipette from 10′000 ppm DMSO stock solutions into 24-well plates and mixed with agar. Lettuce seeds were placed onto the agar and the multi well plate was closed by another plate which contained also agar. After 7 days the compound was absorbed by the roots and the lettuce grew into the lid plate. The lettuce leaves were then cut off into the lid plate. Spodoptera eggs were pipetted through a plastic stencil onto a humid gel blotting paper and the lid plate was closed with it. The samples were assessed for mortality, anti-feedant effect and growth inhibition in comparison to untreated samples 6 days after infestation.

The test system of series [3] is Diabrotica balteata (corn root worm). Put plainly: Activity against Diabrotica balteata (corn root worm), maize sprouts sprayed. The series is classed as in vivo. To be noted: for percent effect (mortality or growth inhibition) at 200 ppm: 96 h, application rate 200 ppm, L2 larvae, 4 days after infestation, read-out: effect in at least one of the two categories (mortality or growth inhibition). As to the method:
Maize sprouts placed onto an agar layer in 24-well microtiter plates were treated with aqueous test solutions prepared from 10′000 ppm DMSO stock solutions by spraying. After drying, the plates were infested with L2 larvae (6 to 10 per well). The samples were assessed for mortality and growth inhibition in comparison to untreated samples 4 days after infestation.

Series [4] concerns Myzus persicae (Green Peach Aphid). The series can be described thus: Activity against Myzus persicae (green peach aphid): feeding/contact activity. The series is classed as in vivo. Particulars: for mortality at 200 ppm: Myzus persicae, 144 h, application rate 200 ppm, feeding/contact, mixed ages, 6 days after infestation. As to the method: Sunflower leaf discs were placed onto agar in a 24-well microtiter plate and sprayed with aqueous test solutions prepared from 10′000 ppm DMSO stock solutions. After drying, the leaf discs were infested with an aphid population of mixed ages. The samples were assessed for mortality 6 days after infestation.

The subject of series [5] is Euschistus heros (Neotropical Brown Stink Bug). Put plainly: Activity against Euschistus heros (neotropical brown stink bug), soybean leaves sprayed. In kind it is in vivo. To be noted: 120 h, application rate 200 ppm, N2 nymphs, 5 days after infestation, read-out: effect in at least one of the two categories (mortality or growth inhibition). As to the method: Soybean leaves on agar in 24-well microtiter plates were sprayed with aqueous test solutions prepared from 10′000 ppm DMSO stock solutions. After drying the leaves were infested with N2 nymphs. The samples were assessed for mortality and growth inhibition in comparison to untreated samples 5 days after infestation.

The test system of series [6] is Plutella xylostella (Diamond Back Moth). The series can be described thus: Activity against Plutella xylostella (diamond back moth), artificial diet. The series is classed as in vivo. To be noted: for percent effect (mortality or growth inhibition) at 200 ppm: 120 h, application rate 200 ppm, L2 larvae, 5 days after infestation, read-out: effect in at least one of the two categories (mortality or growth inhibition). The procedure: 24-well microtiter plates with artificial diet were treated with aqueous test solutions prepared from 10′000 ppm DMSO stock solutions by pipetting. After drying, the plates were infested with L2 larvae (10 to 15 per well). The samples were assessed for mortality and growth inhibition in comparison to untreated samples 5 days after infestation.

In series [7] the test system is Spodoptera littoralis (Egyptian Cotton Leaf Worm). Put plainly: Activity against Spodoptera littoralis (Egyptian cotton leaf worm), cotton leaf discs sprayed. In kind it is in vivo. Particulars: for percent control (mortality, anti-feedant effect or growth inhibition) at 200 ppm: foliar, 72 h, application rate 200 ppm, L1 larvae, 3 days after infestation, read-out: control (mortality, anti-feeding effect or growth inhibition). As to the method:
Cotton leaf discs were placed onto agar in 24-well microtiter plates and sprayed with aqueous test solutions prepared from 10′000 ppm DMSO stock solutions. After drying the leaf discs were infested with five L1 larvae. The samples were assessed for mortality, anti-feeding effect, and growth inhibition in comparison to untreated samples 3 days after infestation. Control of Spodoptera littoralis by a test sample is given when at least one of the categories mortality, anti-feedant effect, and growth inhibition is higher than the untreated sample.

For series [8], the system named is Bemisia tabaci (Cotton White Fly). Put plainly: Activity against Bemisia tabaci (cotton white fly). Particulars: 144 h, application rate 200 ppm, adult white flies, 6 days after incubation. In kind it is in vivo. The procedure:
Cotton leaf discs were placed on agar in 24-well microtiter plates and sprayed with aqueous test solutions prepared from 10′000 ppm DMSO stock solutions. After drying the leaf discs were infested with adult white flies. The samples were checked for mortality 6 days after incubation.

In series [9] the test system is Tetranychus urticae (Two-Spotted Spider Mite). Put plainly: Activity against Tetranychus urticae (two-spotted spider mite). In kind it is in vivo. Particulars: 192 h, application rate 200 ppm, mixed population (mobile stages), 8 days after infestation. As to the method:
Bean leaf discs on agar in 24-well microtiter plates were sprayed with aqueous test solutions prepared from 10′000 ppm DMSO stock solutions. After drying the leaf discs were infested with a mite population of mixed ages. The samples were assessed for mortality on mixed population (mobile stages) 8 days after infestation.

Series [10] relates to Franklinella occidentalis (Western Flower Thrips). Put plainly: Activity against Franklinella occidentalis (western flower thrips). In kind it is in vivo. Particulars: Frankliniella occidentalis, 168 h; application rate 200 ppm; mixed ages; 7 days after infestation. As to the method: Sunflower leaf discs were placed on agar in 24-well microtiter plates and sprayed with aqueous test solutions prepared from […] stock solutions. After drying the leaf discs were infested with a Frankliniella population of mixed ages. The samples were assessed for mortality 7 days after infestation.

[11] abbreviates: concentration 12.5 ppm, listed as drawing 143.

Consider 9 compounds from patent publication US12152024B2, “Pesticidally active heterocyclic derivatives with sulphur and hydroxylamine substituents” (SYNGENTA PARTICIPATIONS AG, priority 2016, dated 2024).

Where only a bound is given, the exact number is not on record here.

`CCS(=O)(=O)c1cccnc1-c1nc2cc(C(F)(F)F)n(OC)c(=O)c2n1C` [Compound A2, 2-(3-ethylsulfonyl-2-pyridyl)-5-methoxy-3-methyl-6-(trifluoromethyl) imidazo[4,5-c]pyridin-4-one]: the “Mortality (%)” value in series [1] (Myzus persicae (systemic), concentration 1.5 ppm, listed as drawing 143) is listed as 80%; in [3] (concentration 50 ppm, listed as drawing 143), 100%; in series [4] (Myzus persicae (feeding/contact), concentration 50 ppm, listed as drawing 143), 100%; in series [6] (setting [11]), 80%; in [7] (setting [11]) it was 80%. Further, in series [1], the mortality at 24 ppm was ≥ 80%. In series [2], the percent effect (mortality, anti-feeding or growth inhibition) at 12.5 ppm is ≥ 80%. Moreover, the percent effect (mortality or growth inhibition) at 200 ppm in series [3], in [5] and in series [6] was ≥ 80% throughout. Moreover, the mortality at 200 ppm in series [4] is ≥ 80%. For the same compound, in series [7], the percent control (mortality, anti-feedant effect or growth inhibition) at 200 ppm was ≥ 80%.

Turning to `CCS(=O)(=O)c1ccc(-n2cncn2)nc1-c1nc2cc(C(F)(F)F)n(OC)c(=O)c2n1C` [Compound A3, 2-[3-ethylsulfonyl-6-(1,2,4-triazol-1-yl)-2-pyridyl]-5-methoxy-3-methyl-6-(trifluoromethyl)imidazo[4,5-c]pyridin-4-one], the mortality at 24 ppm in series [1] was ≥ 80%. The mortality at 200 ppm in series [8], in series [4] and in series [9] was ≥ 80% in each case. In addition, the percent effect (mortality or growth inhibition) at 200 ppm in [3], in series [5] and in series [6] was ≥ 80% throughout. Further, the percent control (mortality, anti-feedant effect or growth inhibition) at 200 ppm in series [7] is ≥ 80%.

As for `CCS(=O)(=O)c1cc(C2(C#N)CC2)cnc1-c1nc2cc(C(F)(F)F)n(OC)c(=O)c2n1C` [Compound A8, 1-[5-ethylsulfonyl-6-[5-methoxy-3-methyl-4-oxo-6-(trifluoromethyl)imidazo[4,5-c]pyridin-2-yl]-3-pyridyl]cyclopropanecarbonitrile], in series [1], the mortality at 24 ppm is ≥ 80%. Also, the mortality at 200 ppm in series [8], in series [4] and in series [9] was ≥ 80% in each case. Moreover, the percent effect (mortality or growth inhibition) at 200 ppm in series [3], in [5] and in [6] was ≥ 80% in each case. In series [7], the percent control (mortality, anti-feedant effect or growth inhibition) at 200 ppm was ≥ 80%.

Take `CCS(=O)(=O)c1cc(C2(C#N)CC2)ccc1-c1nc2cc(C(F)(F)F)n(OC)c(=O)c2n1C` [Compound A9, 1-[3-ethylsulfonyl-4-[5-methoxy-3-methyl-4-oxo-6-(trifluoromethyl)imidazo[4,5-c]pyridin-2-yl)phenyl]cyclopropanecarbonitrile]: the mortality at 24 ppm in series [1] was ≥ 80%. Besides, the mortality at 200 ppm in series [8], in series [4] and in [9] was ≥ 80% each time. Also, the percent effect (mortality or growth inhibition) at 200 ppm in [3], in series [5] and in [6] was ≥ 80% throughout. In addition, the percent control (mortality, anti-feedant effect or growth inhibition) at 200 ppm in series [7] was ≥ 80%.

Regarding `CCS(=O)(=O)c1ccc(Cl)nc1-c1nc2cc(C(F)(F)F)n(OC)c(=O)c2n1C` [Compound A11, 2-(6-chloro-3-ethylsulfonyl-2-pyridyl)-5-methoxy-3-methyl-6-(trifluoromethyl)imidazo[4,5-c]pyridin-4-one], the melting point lay within 195 to 197 °C.

As for `CCS(=O)(=O)c1cc(C(C)(C)C#N)cnc1-c1nc2cc(C(F)(F)F)n(OC)c(=O)c2n1C` [Compound A12, 2-[5-ethylsulfonyl-6-[5-methoxy-3-methyl-4-oxo-6-(trifluoromethyl)imidazo[4,5-c]pyridin-2-yl]-3-pyridyl]-2-methyl-propanenitrile], in series [1], the mortality at 24 ppm was ≥ 80%. In addition, the mortality at 200 ppm in series [8], in series [4] and in series [10] was ≥ 80% in each case. For the same compound, the percent effect (mortality or growth inhibition) at 200 ppm in [3], in series [5] and in [6] was ≥ 80% throughout. Moreover, in series [7], the percent control (mortality, anti-feedant effect or growth inhibition) at 200 ppm is ≥ 80%.

Regarding `CCS(=O)(=O)c1ccc(N)nc1-c1nc2cc(C(F)(F)F)n(OC)c(=O)c2n1C` [Compound A13, 2-(6-amino-3-ethylsulfonyl-2-pyridyl)-5-methoxy-3-methyl-6-(trifluoromethyl)imidazo[4,5-c]pyridin-4-one], in [1], the mortality at 24 ppm was ≥ 80%. For the same compound, the mortality at 200 ppm in series [8] and in series [4] was ≥ 80% in each case. For the same compound, the percent effect (mortality or growth inhibition) at 200 ppm in series [3], in series [5] and in series [6] was ≥ 80% throughout. Further, the percent control (mortality, anti-feedant effect or growth inhibition) at 200 ppm in series [7] was ≥ 80%.

Take `CCS(=O)(=O)c1cc(Cl)c(N)nc1-c1nc2cc(C(F)(F)F)n(OC)c(=O)c2n1C` [Compound A14, 2-(6-amino-5-chloro-3-ethylsulfonyl-2-pyridyl)-5-methoxy-3-methyl-6-(trifluoromethyl)imidazo[4,5-c]pyridin-4-one]: the mortality at 24 ppm in series [1] was ≥ 80%. For the same compound, the mortality at 200 ppm in series [8] and in [4] was ≥ 80% in each case. Besides, the percent effect (mortality or growth inhibition) at 200 ppm in series [3], in series [5] and in series [6] was ≥ 80% throughout. For the same compound, the percent control (mortality, anti-feedant effect or growth inhibition) at 200 ppm in series [7] is ≥ 80%.

On to `CCS(=O)(=O)c1cc(Br)cnc1-c1nc2cc(C(F)(F)F)n(OC)c(=O)c2n1C` [Compound A17, 2-(5-bromo-3-ethylsulfonyl-2-pyridyl)-5-methoxy-3-methyl-6-(trifluoromethyl)imidazo[4,5-c]pyridin-4-one], for which the mortality at 24 ppm in [1] was ≥ 80%. The mortality at 200 ppm in series [8] and in [4] was ≥ 80% in each case. Also, the percent effect (mortality or growth inhibition) at 200 ppm in series [3], in series [5] and in [6] was ≥ 80% in each case. The percent control (mortality, anti-feedant effect or growth inhibition) at 200 ppm in series [7] is ≥ 80%.
